Common to all, as to assay: DTP human tumour cell line panel, 48 h
Assay [1] has as its system SK-MEL-2.
The test system of assay [2] is HCT-15.
Assay [3] relates to A498.
The test system of assay [4] is SK-MEL-5.
Assay [5] concerns SK-MEL-28.
Assay [6] deals with ACHN.
The subject of assay [7] is LOX IMVI.
The subject of assay [8] is OVCAR-5.
Assay [9] has as its system HOP-62.
Assay [10] relates to KM12.
For assay [11], the system named is OVCAR-4.
Assay [12] deals with MDA-N.
The subject of assay [13] is DMS-273.
The subject of assay [14] is TK-10.
Assay [15] deals with OVCAR-8.
The subject of assay [16] is RXF 393.
Assay [17] deals with HOP-92.
For assay [18], the system named is T47D.
Assay [19] has as its system IGROV-1.
Assay [20] has as its system DU-145.

Structures are written as SMILES.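 96-well plates; 48 h exposure; 5 concentrations. Endpoints by linear interpolation between flanking doses. Not reached: highest tested concentration assigned. At the GI50, growth is halved.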 Activity calls are given as the source filed them. No stated cut-off is given here; in the data, active = GI50 up to about 1.1 µM and inactive = higher.

In the case of `CO[C@@H]1[C@H](OC(=O)NC(=O)CCl)CC[C@]2(CO2)[C@H]1[C@@]1(C)O[C@@H]1CC=C(C)C` [O-CHLOROACETYLCARBAMOYLFUMAGILLOL], the GI50 in assay [1] was 13.6 µM (inactive); in [2] it was 14.1 µM; in assay [3], 17.2 µM (inactive); in assay [4], 8.83 µM (inactive); in [5], 12.8 µM (inactive); in assay [6], 14.1 µM (inactive). Moreover, the GI50 in assay [7] is 5.05 µM (inactive); in assay [8], 17.3 µM (inactive); in assay [9], 12.9 µM (inactive); in [10], 11.5 µM (inactive); in assay [11], 14.4 µM (inactive); in [12], 11.4 µM (inactive). The GI50 is 7.11 µM (inactive) in assay [13]; 18.3 µM (inactive) in assay [14]; 15.8 µM (inactive) in [15]; 8.36 µM (inactive) in [16]; 15.6 µM (inactive) in assay [17]; 12.6 µM (inactive) in [18]. In addition, the GI50 in assay [19] and in assay [20] was 12.2 µM (inactive) throughout.
Consider `Cc1ccc(C(=O)OC(C)C)cc1/N=N/N(C)C`, for which the GI50 was > 100 µM (inactive) in [1]; above 100 µM in [2]; > 64.9 µM (inactive) in assay [4]; > 100 µM (inactive) in assay [5]; > 88.5 µM (inactive) in assay [6]; > 70 µM (inactive) in [7]. Also, the GI50 in [8] is > 100 µM (inactive); in assay [9], 97.5 µM (inactive); in assay [10], > 84.5 µM (inactive); in [11] it was > 75.2 µM (inactive); in assay [12], > 100 µM (inactive); in [13], 56.5 µM (inactive). The GI50 is > 100 µM (inactive) in assay [14]; > 100 µM (inactive) in assay [15]; > 93.3 µM (inactive) in assay [17]; 44.5 µM (inactive) in assay [18]; > 100 µM (inactive) in assay [19]; > 100 µM (inactive) in [20].
`C[N+](C)(C)CC1CCCC(C[N+](C)(C)C)C1=O` (stereo not drawn): the GI50 in assay [1] was 1.9 µM (inactive); in assay [2] it was 0.308 µM; in [3] it was 9.62 µM (inactive); in assay [4] it was 5.16 µM (inactive); in assay [5], 1.85 µM (inactive); in assay [6] it was 0.845 µM (active). The GI50 in assay [7] is 1.23 µM (inactive); in [8] it was 3.52 µM (inactive); in assay [9], 23.3 µM (inactive); in assay [10] it was 4.66 µM (inactive); in assay [11], 0.641 µM (active); in assay [12], 3.49 µM (inactive). Also, the GI50 is 3.4 µM (inactive) in assay [13]; 1.21 µM (inactive) in assay [14]; 0.869 µM (active) in assay [15]; 1.69 µM (inactive) in assay [16]; 0.441 µM (active) in assay [17]; 1.09 µM (active) in assay [18]. Further, the GI50 was 5.24 µM (inactive) in assay [19] and 5.75 µM (inactive) in [20].

The term GI50 denotes the concentration giving 50% growth inhibition.

The values are drawn from ChEMBL document CHEMBL1201862, “PubChem BioAssay data set” (2004).
